# Read-outs that look alike come from different tables or passages of the source.
# How the values were obtained:
# endothelial cells = test: Toxicity to endothelial cells when AGE stimulated; format: cell-based
# Protocol: In general, to determine if there is cytotoxic activity associated with a compound, cells of a particular type, in a growing stage or a quiescient stage, are treated with the compound of interest. Various parameters of cell death or cessation are used to measure the effects of the compound. For example, the amount of nucleic acid or protein synthesis can be measured or visual observation of the state of the cells, such as release from the substrate, can be used to measure the state of the cells.
# All treatments, compound-added and controls were carried out in serum free media containing 0.2% albumin. Media from all conditions were collected and used for IL-6 ELISA.
# TNF-α induced IL-6 = test: TNF-α-induced IL-6 production determined by IL-6 ELISA; format: cell-based; conditions: for % IL6 production compare to TNF stimulation of IL6 (100%), HAEC, IL6, @ 5 uM / % IL6 production compare to TNF stimulation of IL6 (100%), Compds tested @ 10 uM HAEC, IL6: TNF stimulated; for % IL6 production compare to TNF stimulation of IL6 (100%), HAEC, IL6, @ 5 uM: compound 5 uM (bracketed value); for % IL6 production compare to TNF stimulation of IL6 (100%), Compds tested @ 10 uM HAEC, IL6: compound 10 uM; for activity at 10 µM: Homo sapiens
# Outline: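 Human aortic endothelial cells grown to ≥90% confluence, then treated with compounds and stimuli in serum-free medium with 0.2% albumin. Secreted IL-6 in collected media measured by sandwich ELISA (2 ug/ml capture, 200 ng/ml biotinylated detection antibody, streptavidin-HRP), read at 450 nm.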
# [1] = test system: Human aortic smooth muscle cells; conditions: 24 h
# Protocol: Human aortic smooth muscle cells (Clonetics) were used. Cells were grown in basal medium containing 5% fetal bovine serum supplemented with growth factors, basic fibroblast growth factor, epidermal growth factor and insulin. […] The cells were then serum starved for 24 h to induce quiescence. Fresh growth medium containing no compound or 10 μM compound was then added and further incubated for 24 h. Cell number was determined by using a cell proliferation assay kit (Celltiter96 AQueous from Promega).
# cells = test: Cytotoxicity/Lactate Dehydrogenase assay; format: cell-based; conditions: toxic or cause cell death; concentrations (uM) given
# Protocol: An appropriate number of cells are plated in four 96-well plates, one plate for “day 0” and three plates for days 1-3. Cells are treated with at least one compound of the present invention in varying concentrations with and without the apoptosis inducer cisplatin (2 μM) (“+cis” or “-cis”). Unteated cells are also assayed with and without cisplatin. After transfection, the plates are incubated at 37° C. overnight.
# An appropriate number of cells are plated in four 96-well plates, one plate for “day 0” and three plates for days 1-3. Cells are treated with at least one compound of the present invention in varying concentrations. The negative control cells have normal media conditions, a duplicate set of wells is treated with the composition in which the compound is provided, but there is no added compound and the positive control cells are treated with the apoptosis inducer cisplatin (2 μM). All of the cells are transfected with a vector having a promoter that is responsive to apoptosis conditions. When apoptosis occurs, the promoter is turned on and the lactic dehydrogenase gene is activated and the enzyme protein is made and active. Activity is easily detected with a color change. After transfection, the plates are incubated at 37° C. overnight.
# About 8 mls of warmed alpha MEM LDH lysis buffer (2% Triton X100) and about 8 mls of culture media (1/2 dilution) are combined. Two 96-well v-bottom plates are prepared, one labeled “lysis” and one labeled “supernatant.” To lyse the cells, about 200 μl Alpha MEM lysis buffer (diluted 1/2) is added to one test plate from which the supernatant has been removed and added to the plate labeled supernatant. After mixing, about 200 μl of lysed cells are transferred to the lysis plate. Both the lysis and supernatant plates are centrifuged at about 1600 rpm for about 10 min. After centrifugation, about 100 μl of both the supernatant or lysate is transferred to corresponding 96-well flat-bottomed plates.
# The assay for cytotoxicity uses the Cytotoxicity Detection Kit (LDH) from Roche Diagnostics Corp. (Indianapolis, Ind.). Using the directions provided, the dye solution is mixed and added each well of the lysate and supernatant plate and incubated for up to 20-25 min at 15-25° C. in the dark.
# [2] = endothelial cells, AGE stimulated
# [3] = 24 h, read-out: Inhibition of TNF-induced IL6 production
smiles,measurement,setting,value
"COc1ccc(Nc2nc(NC3CCCCCC3)nc(NC3CCN(Cc4ccccc4)CC3)n2)cc1Cl [Compound 134, N-(1-Benzyl-piperidin-4-yl)-N′-(3-chloro-4-methoxy-phenyl)-N″-cycloheptyl-[1,3,5]triazine-2,4,6-dianmine]",Toxic (AGE-treated),endothelial cells; [2],toxic
same,"% IL6 production compare to TNF stimulation of IL6 (100%), HAEC, IL6, @ 5 uM",TNF-α induced IL-6; HAEC,55%
same,"% IL6 production compare to TNF stimulation of IL6 (100%), Compds tested @ 10 uM HAEC, IL6",TNF-α induced IL-6; HAEC,total cell death
CN1CCC(N(C)c2nc(Nc3ccc(O)c(Cl)c3)nc(NC3CCCCCC3)n2)CC1 [drawing 1613],"Proliferation Data, cell morphology (rounding, blunting, morphology change)",[1],cell bluntingat 3 to 10 uM
same,"Inflammation Data, cell death at 10 uM","TNF-α induced IL-6; human, 24 h, 10 µM",total cell death
CN1CCC(N(C)c2nc(Nc3ccc(OCc4ccccc4)c(Cl)c3)nc(NC3CCCCCC3)n2)CC1,"Proliferation Data, cell death",[1],no celldeath
same,"Proliferation Data, cell morphology (rounding, blunting, morphology change)",[1],cell morphologychange at 5 & 10 uM
same,"Inflammation Data, activity in words at 1 uM",TNF-α induced IL-6,Not active
same,"Inflammation Data, activity in words at 5 uM",TNF-α induced IL-6; 5 uM,Not active
same,"Inflammation Data, cell death at 5 uM",TNF-α induced IL-6; 5 uM,30%
same,"Inflammation Data, cell death at 10 uM",TNF-α induced IL-6; 10 uM,totaldeath
"COc1ccc(Nc2nc(NCCCCCO)nc(N(C)C3CCNCC3)n2)cc1Cl [Compound 109, 5-[4-(3-chloro-4-methoxy-phenylamino)-6-(methyl-piperidin-4-yl-amino)-1,3,5-triazin-2-ylamino]-pentan-1-ol]",melting point,,101 °C
same,activity at 10 µM,"TNF-α induced IL-6; 24 h, read-out: % IL6 production compare to TNF stimulation of IL6 (100%), Compds tested @ 10 uM HAEC, IL6",40%
same,activity at 10 µM,TNF-α induced IL-6; [3],25 to 50%
CN(c1nc(Nc2ccc(OCc3ccccc3)c(Cl)c2)nc(NC2CCCCCC2)n1)C1CCNCC1,"Proliferation Data, cell death",[1],celldeath at 10 uM
same,"Proliferation Data, cell morphology (rounding, blunting, morphology change)",[1],cell morphologychange at 7.5 uM
same,"Inflammation Data, activity in words at 1 uM",TNF-α induced IL-6,not active
same,"Inflammation Data, cell death at 5 uM",TNF-α induced IL-6; 5 uM,50%
same,"Inflammation Data, cell death at 10 uM",TNF-α induced IL-6; 10 uM,total cell death
"COc1ccc(Nc2nc(Cl)nc(NCC3CCCCC3)n2)cc1F [Compound 125, 6-Chloro-N-cyclohexylmethyl-N′-(3-fluoro-4-methoxy-phenyl)-[1,3,5]triazine-2,4-diamine]",melting point,,156 °C
"CCN1CCCC1CNc1nc(Nc2ccc(OC)c(Cl)c2)nc(NC2CN3CCC2CC3)n1 (stereo not drawn) [Compound 148, N-(1-Aza-bicyclo[2.2.2]oct-3-yl)-N′-(3-chloro-4-methoxy-phenyl)-N″-(1-ethyl-pyrrolidin-2-ylmethyl)-[1,3,5]triazine-2,4,6-triamine]",Toxic (AGE-treated),endothelial cells,toxic
same,"% IL6 production compare to TNF stimulation of IL6 (100%), HAEC, IL6, @ 5 uM",TNF-α induced IL-6; HAEC,60%
same,"% IL6 production compare to TNF stimulation of IL6 (100%), Compds tested @ 10 uM HAEC, IL6",TNF-α induced IL-6; HAEC,total cell death
"COc1ccc(Nc2nc(Nc3ccc(OC)c(Cl)c3)nc(OCC3CCCCC3)n2)cc1Cl [Compound 118, N,N′-Bis-(3-chloro-4-methoxy-phenyl)-6-cyclohexylmethoxy-1,3,5-triazine-2,4-diamine]",melting point,,188 °C
"COc1ccc(Nc2nc(Cl)nc(Cl)n2)cc1F [Compound 124, (4,6-Dichloro-[1,3,5]triazin-2-yl)-(3-fluoro-4-methoxy-phenyl)-amine]",melting point,,134 °C
"COc1ccc(Nc2nc(NC(C)C)nc(N(C)C3CCNCC3)n2)cc1Cl [Compound 107, N^2-(3-chloro-4-methoxy-phenyl)-N^4-isopropyl-N^6-methyl-N^6-piperidin-4-yl-1,3,5-triazine-2,4,6-triamine]",melting point,,129 °C
same,"% IL6 production compare to TNF stimulation of IL6 (100%), @ 5 uM","TNF-α induced IL-6; HAEC, 5 uM compound, TNF stimulation = 100%",60 @ 5 uM %
same,activity at 10 µM,TNF-α induced IL-6; [3],50 to 75%
"CCN1CCCC1CNc1nc(Nc2ccc(OC)c(F)c2)nc(OCC2CCCCC2)n1 (stereo not drawn) [Compound 116, 6-Cyclohexylmethoxy-N-(1-ethyl-pyrrolidin-2-ylmethyl)-N′-(3-fluoro-4-methoxy-phenyl)-[1,3,5]triazine-2,4-diamine]",melting point,,59 °C
"COc1ccc(Nc2nc(NC3CCCCCC3)nc(OC(C)C)n2)cc1Cl [Compound E21, N^2-(3-chloro-4-methoxyphenyl)-N^4-cycloheptyl-6-isopropoxy-1,3,5-triazine-2,4-diamine]",melting point,,136 to 138 °C
"COc1ccc(Nc2nc(NC3CCCCCC3)nc(N(C)C3CCNCC3)n2)cc1F [Compound 159, N^2-Cycloheptyl-N^4-(3-fluoro-4-methoxy-phenyl)-N^6-methyl-N^6-piperidin-4-yl-1,3,5-triazine-2,4,6-triamine]",Toxic (AGE-treated),endothelial cells,toxic
same,"% IL6 production compare to TNF stimulation of IL6 (100%), HAEC, IL6, @ 5 uM",TNF-α induced IL-6; HAEC,total cell death @ 5 and 10
same,"% IL6 production compare to TNF stimulation of IL6 (100%), Compds tested @ 10 uM HAEC, IL6",TNF-α induced IL-6; HAEC,total cell death @ 5 and 10
"CCN1CCCC1CNc1nc(NCC2CCCCC2)nc(Nc2ccc(OC)c(F)c2)n1 (stereo not drawn) [Compound 126, N-Cyclohexylmethyl-N′-(1-ethyl-pyrrolidin-2-ylmethyl)-N″-(3-fluoro-4-methoxy-phenyl)-[1,3,5]triazine-2,4,6-triamine]",melting point,,72 °C
"COc1ccc(Nc2nc(Nc3ccc(OC)c(Cl)c3)nc(N(C)C3CCN(C)CC3)n2)cc1Cl [Compound 121, N,N′-Bis-(3-chloro-4-methoxy-phenyl)-N″-methyl-N″-(1-methyl-piperidin-4-yl)-[1,3,5]triazine-2,4,6-triamine]",Toxicity,cells,Toxic by toxicityassay at 0.75 uM.Starts blunting by1 uM and rounding by5 uM
same,Toxic (AGE-treated),endothelial cells,toxic
same,"% IL6 production compare to TNF stimulation of IL6 (100%), HAEC, IL6, @ 5 uM",TNF-α induced IL-6; HAEC,"[50 @ 5 uM, but some %"
same,"% IL6 production compare to TNF stimulation of IL6 (100%), Compds tested @ 10 uM HAEC, IL6",TNF-α induced IL-6; HAEC,total cell death @ 10 uM
same,toxicity @ 5 uM,"TNF-α induced IL-6; human, 24 h, 5 µM",toxicity (~20%)]
"COc1ccc(Nc2nc(NC3CCCCCC3)nc(NC3CCNCC3)n2)cc1Cl [Compound 135, N^2-(3-chloro-4-methoxy-phenyl)-N^4-cycloheptyl-N^6-piperidin-4-yl-1,3,5-triazine-2,4,6-triamine]",Toxic (AGE-treated),endothelial cells; [2],toxic
same,"% IL6 production compare to TNF stimulation of IL6 (100%), HAEC, IL6, @ 5 uM",TNF-α induced IL-6; HAEC,60%
same,"% IL6 production compare to TNF stimulation of IL6 (100%), Compds tested @ 10 uM HAEC, IL6",TNF-α induced IL-6; HAEC,total cell death
"COc1ccc(Nc2nc(Nc3ccc(OC)c(Cl)c3)nc(NC3CCCCCC3)n2)cc1Cl [Compound 122, N,N′-Bis-(3-chloro-4-methoxy-phenyl)-N″-cycloheptyl-[1,3,5]triazine-2,4,6-triamine]",melting point,,183 °C
"CN1CCC(N(C)c2nc(Nc3ccc(O)c(Cl)c3)nc(NC3CCCCCC3)n2)CC1 [Compound 138, 2-Chloro-4-{4-cycloheptylamino-6-[methyl-(1-methyl-piperidin-4-yl)-amino]-[1,3,5]triazin-2-ylamino}-phenol]",Toxic (AGE-treated),endothelial cells,toxic
same,"% IL6 production compare to TNF stimulation of IL6 (100%), Compds tested @ 10 uM HAEC, IL6",TNF-α induced IL-6; HAEC,toxic

# — patent publication US7332489B2, “Methods and compositions of novel triazine compounds” (Reddy US Therapeutics, Inc., priority 2003, dated 2008)
